According to PubChem BioAssay (NCI):
Where “and” joins values, the source holds several entries; their conditions need not be identical. Equal values may be shown once.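 1) Cells in 96-well plates. 2) Compound, 48 h, 5 concentrations. 3) Linear interpolation between surrounding doses. 4) Unreached endpoint = highest concentration. GI50 is the concentration that inhibits growth by half. TGI is the concentration that stops growth completely.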

Key:
Test in all cases: NCI tumour cell line growth inhibition, 48 h
786-0 renal = test system: 786-0 renal
A498 renal = test system: A498 renal
A549 NSCLC = test system: A549 NSCLC
ACHN renal = test system: ACHN renal
M14 melanoma = test system: M14 melanoma
MOLT-4 leukemia = test system: MOLT-4 leukemia
OVCAR-4 ovarian = test system: OVCAR-4 ovarian
SF-539 CNS = test system: SF-539 CNS
HL-60(TB) leukemia = test system: HL-60(TB) leukemia

Structure (SMILES) | TGI (786-0 renal) | TGI (A498 renal) | TGI (A549 NSCLC) | TGI (ACHN renal) | TGI (M14 melanoma) | TGI (MOLT-4 leukemia) | TGI (OVCAR-4 ovarian) | TGI (SF-539 CNS) | GI50 (786-0 renal) | GI50 (A498 renal) | GI50 (A549 NSCLC) | GI50 (ACHN renal) | GI50 (HL-60(TB) leukemia) | TGI (HL-60(TB) leukemia) | GI50 (M14 melanoma) | GI50 (MOLT-4 leukemia) | GI50 (OVCAR-4 ovarian) | GI50 (SF-539 CNS)
COC(=O)c1cc2c(=O)n(C)c3ccccc3n2c1C(=O)OC | 50.3 µM | > 100 µM | > 100 µM | > 100 µM | > 100 µM | > 100 µM | > 100 µM | 75.8 µM |  |  |  |  |  |  |  |  |  | 
COc1c/c(=C2\C=c3ccccc3=N2)[nH]/c1=C\c1[nH]c(C)cc1C | 4.21 µM | 7.47 µM | 19.2 µM | 2.33 µM | > 31.9 µM |  | 4.83 µM | 4.19 µM | 0.048 µM | 0.242 µM | 0.139 µM | < 0.0224 µM | < 0.0167 µM | 12.8 µM | 0.64 µM | < 0.0203 µM | 0.0638 µM | 0.0466 µM
Cc1c(C)n(CCCN2CCN(C)CC2)c2ccc(Oc3cccc(C(=O)N4CCN(CCc5ccc(F)cc5)CC4)c3)cc12 | 2.95 µM |  | 3.62 µM | 3.06 µM |  |  | 3.92 µM | 3.03 µM | 1.53 µM |  | 1.81 µM | 1.67 µM |  |  |  |  | 1.84 µM | 1.63 µM
N#C/C(=C\c1cc(O)cc(O)c1)C(N)=O | > 100 µM | > 100 µM | > 100 µM | > 100 µM | > 100 µM | > 100 µM | > 100 µM | > 100 µM |  |  |  |  |  |  |  |  |  | 
Clc1c(Cl)[n+](Cc2ccc3ccccc3c2)cn1Cc1ccc2ccccc2c1 | 3.11 µM | 2.92 µM | 11.7 µM | 3.66 µM | 2.8 µM |  | 3 µM | 2.98 µM | 1.65 µM | 1.23 µM | 3.32 µM | 1.92 µM |  |  | 1.21 µM |  | 1.36 µM | 1.57 µM
COC(=O)[C@@H]1c2cc3c(c(O)c2[C@@H](OC2OC(C)C(OC)C(C)(OC)C2OC)C[C@]1(C)O)C(=O)c1c(O)cc2c(c1C3=O)O[C@H]1O[C@]2(C)[C@H](O)[C@@H](N(C)C)[C@@H]1O (some centres not stated) | 2.1 µM | 0.0162 µM | 10.3 µM | 0.951 µM and 5.37 µM | 0.14 µM and 0.107 µM | 0.229 µM and 0.0903 µM | 0.291 µM | 0.16 µM and 0.0302 µM |  |  |  | 0.0114 µM |  | 0.107 µM | 0.0194 µM |  |  | 
O=C1[C@H]2ON(c3ccccc3)C(c3ccc([N+](=O)[O-])cc3)[C@H]2C(=O)N1c1ccc(Cc2ccc(N3C(=O)[C@@H]4ON(c5ccccc5)C(c5ccc([N+](=O)[O-])cc5)[C@@H]4C3=O)cc2)cc1 (some centres not stated) | > 100 µM | > 100 µM | > 100 µM | > 100 µM | 38.9 µM | > 100 µM | > 100 µM | > 100 µM |  |  |  |  |  | > 100 µM |  |  |  | 
CC1(C)OC2C(CCP(=O)(O)O)OC(c3nc(C(N)=O)cs3)C2O1 (configuration not stated) | > 100 µM | > 100 µM | > 100 µM | > 100 µM | > 100 µM | > 100 µM | > 100 µM |  |  |  |  |  |  |  |  |  |  | 
Nc1nc(/C=C\c2ccc([N+](=O)[O-])s2)nc(N2CCN(c3ccccc3)CC2)n1 | 48.7 µM | 15.5 µM | > 100 µM | 41.4 µM | 39.3 µM | 75.3 µM | > 100 µM | > 100 µM | 24.2 µM | 0.0746 µM | 33.6 µM | 19 µM | 18.8 µM | 54.2 µM | 19.5 µM | 23.1 µM | 40.6 µM | 40.9 µM
COc1ccc2ncn(-c3cc(O[C@H](C)c4ccccc4C(F)(F)F)c(C(N)=O)s3)c2c1 | 5.79 µM | 0.597 µM | 4.22 µM | 25 µM | 3.23 µM | 4.43 µM | 16.1 µM | 4.07 µM | 0.592 µM | 0.0764 µM | 0.119 µM | 3.17 µM | 0.0905 µM | 1.01 µM | 0.0989 µM | 0.122 µM | 3.49 µM | 0.131 µM
CC(C)(C)C1=CC(=C(P(=O)(O)O)P(=O)(O)O)C=C(C(C)(C)C)C1=O | > 50 µM | > 50 µM | > 50 µM | > 50 µM | > 50 µM | > 50 µM | > 50 µM | > 50 µM |  |  |  |  |  | > 50 µM |  |  |  | 
O=C(NCCCCN1CCOCC1)c1cc2ccccc2o1 | > 100 µM | > 100 µM | > 100 µM | > 100 µM | > 100 µM |  | > 100 µM | > 100 µM | > 100 µM | > 100 µM | > 100 µM | > 100 µM |  |  | > 100 µM |  | > 100 µM | > 100 µM
CC(C)N(C(=O)C12C3C4C5(C#N)C3C1(C#N)C5C42C#N)C(C)C (configuration not stated) | > 100 µM | > 100 µM | > 100 µM | > 100 µM |  | > 100 µM | > 100 µM | > 100 µM |  |  |  |  |  | > 100 µM |  |  |  | 
CC(=O)Nc1ccc(/C=C/C(=O)c2sc(-c3cccnc3)nc2C)cc1 | > 100 µM | > 100 µM | > 100 µM | > 100 µM |  | > 100 µM |  | > 100 µM |  |  |  |  |  | > 100 µM |  |  |  | 
O=c1c2c(nc3n1CCS3)[nH]c1cc([N+](=O)[O-])ccc12 | > 100 µM | > 100 µM | > 100 µM | > 100 µM | > 100 µM | > 100 µM | > 100 µM | > 100 µM | > 100 µM | > 100 µM | > 100 µM | > 100 µM | 20.1 µM | > 100 µM | > 100 µM | 81.5 µM | > 100 µM | > 100 µM
COc1cc(/C=C2\CC3C4CC=C5C[C@@H](OC(C)=O)CC[C@]5(C)C4CC[C@]3(C)C2=O)ccc1OCCN1CCCCC1 (some centres not stated) | 3.1 µM | 5.07 µM | > 100 µM | 14.4 µM | 3.79 µM | 3.23 µM | 49 µM | 3.82 µM | 1.66 µM | 1.71 µM | 3.42 µM | 3.64 µM |  |  | 2.09 µM | 1.16 µM | 15.1 µM | 2.02 µM
CC1=N/C(=C/c2ccc3c(c2)OCO3)C(=O)O1 | > 100 µM | > 100 µM | > 100 µM | > 100 µM | > 100 µM | > 100 µM | > 100 µM | > 100 µM |  |  |  |  |  |  |  |  |  | 
C/C=C(\C)c1cc(=O)c2c(C)cc3c(c2o1)C(=O)c1c(O)c(C2CC(C)(N(C)C)C(OC(C)=O)C(C)O2)cc(C2CC(N(C)C)C(O)C(C)O2)c1C3=O (configuration not stated) | 5.68 µM | 11.1 µM | > 50 µM | 10 µM | 1.85 µM | > 15.2 µM | 10.2 µM | 2.59 µM |  |  |  |  |  | > 50 µM |  |  |  | 
NNC(=O)C(=O)N/N=C(\CCCC(=O)Nc1ccc(Cl)cc1)CC(=O)c1ccc(F)cc1 | > 100 µM | 88.6 µM | > 100 µM | > 100 µM | > 100 µM | > 100 µM | > 100 µM |  |  |  |  |  |  | > 100 µM |  |  |  | 
C=CCC1(CN(C)C)CC/C(=C\c2ccc(OC)cc2)C1=O (configuration not stated) | > 100 µM | > 100 µM | > 100 µM | > 100 µM | > 100 µM | > 100 µM | > 100 µM | > 100 µM |  |  |  |  |  | 45.6 µM |  |  |  | 
CCOC(OC(C)=O)[C@@H]1C=C[C@H](C)N(c2ccc([N+](=O)[O-])cc2)O1 (some centres not stated) | 7.23 µM | > 59.4 µM | 43.4 µM | 13 µM | 9.44 µM | 5.49 µM | 15.4 µM | 8.44 µM |  |  |  |  |  | 4.79 µM |  |  |  | 
O=C(CSc1nc2c(n1Nc1ccccc1)-c1ccccc1SC2)Nc1nc(-c2ccc(Cl)cc2)cs1 | 34.8 µM | 32.8 µM |  | > 100 µM | > 100 µM | > 100 µM |  | > 100 µM | 12.7 µM | 6.44 µM |  | 35.4 µM |  |  | > 100 µM | > 100 µM |  | 25.8 µM
CCOC(=O)Cc1c(C)c2cc(C(=O)c3ccccc3)c(O)cc2oc1=O | > 100 µM | 80.2 µM | 91.3 µM | > 100 µM | > 100 µM | > 100 µM | > 100 µM | 58.3 µM |  |  |  |  |  | 53.8 µM |  |  |  | 
CCN(CC)CCCNc1nccc2c(C)c3c(cc12)c1cnccc1n3C | 1.2 µM | 2.61 µM | 1.37 µM | 2.41 µM | 1.12 µM |  | 0.131 µM | 0.609 µM |  |  |  |  |  |  |  |  |  | 
COc1ccc(C(=O)C(CN(C)C)CN(C)C)cc1 | 16.1 µM | 32.7 µM | 43.4 µM | 2.93 µM | 13.5 µM |  |  | 20.7 µM | 3.87 µM | 18.6 µM | 19.1 µM | 1.56 µM | 0.116 µM | 1.87 µM | 3.53 µM |  |  | 7.6 µM
OC(CNc1ccnc2cc(Cl)ccc12)CNc1ccnc2cc(Cl)ccc12 | 3.39 µM | 25.3 µM | 21.2 µM | 28.2 µM | 3.18 µM |  | 3.34 µM | 3.3 µM | 1.81 µM | 11 µM | 4.49 µM | 5.09 µM | 1.82 µM | 3.79 µM | 1.73 µM |  | 1.64 µM | 1.74 µM
O=C(CN(/C=C/C(=O)C(F)(F)F)c1ccc(Cl)cc1)c1ccc(Cl)cc1 | 65.1 µM | 26.9 µM | 32.1 µM | 20.7 µM |  | 37.4 µM | 32.4 µM | 36.9 µM | 18.6 µM | 13.5 µM | 13.2 µM | 8.01 µM |  |  |  | 8.82 µM | 12 µM | 19.2 µM
